Reference: patent EP3544951B1, “SUBSTITUTED HEXARIC ACID DERIVATIVES AND USES THEREOF” (Plant Advanced Technologies Pat, priority 2016, dated 2018)

How the values were obtained:
[1] = tested on: neurones corticaux primaires de rat; test: Survival of primary cortical neurons intoxicated with Aβ 1-42 peptide (MAP-2 staining); assay type: cell-based; settings: pre-incubated 1 h before Aβ 1-42 20 µM
From the text: (§1) Le but de cette étude est d'évaluer les effets de l'acide léontopodique B1 sur des neurones corticaux primaires de rat, intoxiqués par le peptide Aβ selon le modèle in vitro de la maladie d'Alzheimer décrit dans Callizot et al., 2013 (Callizot N. et al., Operational dissection of β-amyloid cytopathic effects on cultured neurons. J Neurosci Res. 2013, 91: 706-16). La survie des neurones et des astrocytes ainsi que l'intégrité du réseau de neurites sont évaluées.
(§2) Des neurones corticaux de rat sont cultivés comme décrit dans Singer et al., 1999 (Singer C. et al., Mitogen-activated protein kinase pathway mediates estrogen neuroprotection after glutamate toxicity in primary cortical neurons. J Neurosci. 1999, 19: 2455-2463) et Callizot et al. (2013).
(§3) En résumé, des rats femelles gravides sont tuées par dislocation cervicale après 15 jours de gestation. Les fœtus sont collectés et immédiatement placés dans un milieu glacé L15 Leibovitz (Pan Biotech, Batch: 8810315) additionné de 2% pénicilline (10,000 U/mL) et d'une solution de streptomycine (10 mg/mL) (PS; Pan Biotech, batch: 1451013) et 1% de albumine de sérum de bovin (BSA; Pan Biotech, batch: K180713). Le cortex est traité pendant 20 min à 37°C avec une solution de trypsine- EDTA (Pan Biotech, Batch: 3330914) à une concentration finale de 0,05% trypsine et 0,02% EDTA. […]

astrocytes = test: Survival of astrocytes in primary cortical neuron culture intoxicated with Aβ 1-42 peptide (GFAP staining); assay type: cell-based, rat; settings: Aβ 1-42 20 µM, 24 h (Figure 3)
From the text: as §1, §2, §3

[2] = tested on: astrocytes sains (non traités par le peptide Aβ 1-42); test: Proliferation of pure healthy astrocytes (MTT test, CellTiter 96 Aqueous One Solution); assay type: cell-based, rat (Wistar); settings: 4 days incubation, no Aβ 1-42 (Figure 4)
Description: En résumé, le cerveau entier d'un embryon âgé de 15 jours de rat (Wistar) est prélevé. Le cerveau entier est dissocié par trypsinisation. Les cellules sont suspendues dans un milieu de culture du milieu DMEM (Dulbecco's modified Eagle's medium) complémenté avec 2% de pénicilline (10,000 U/mL) et d'une solution de streptomycine (10 mg/mL), et 10% de sérum de veau fœtal (FCS). Les cellules sont ensemencées à une densité de 267 000 cellules par cm^2 dans un flacon de culture. Au stade de la confluence cellulaire, le flacon est secoué pendant 3 heures. Le surnageant de la culture cellulaire est enlevé, les cellules sont traitées par une solution de trypsine- EDTA (Pan Biotech) à une concentration finale de 0,05% trypsine et de 0,02% EDTA. Ensuite les cellules sont congelées afin de constituer une lignée cellulaire d'astrocytes.
Les astrocytes (au stade : P4) sont ensemencées à une densité de 4 000 par puits d'une plaque de 96 puits avec de l'acide léontopodique B1 (dissous à différentes concentrations : 100 nM, 1 µM, 10 µM et 50 µM dans le milieu de culture) et sont cultivées à 37°C dans un incubateur contenant 95% d'air et 5% de CO2. Le milieu est changé tous les jours. Les astrocytes sont cultivés pendant 4 jours en présence d'acide léontopodique B1 avant de mesurer son effet sur la prolifération des astrocytes. […]

[3] = tested on: réseau de neurites de neurones corticaux primaires; test: Neurite network of primary cortical neurons intoxicated with Aβ 1-42 peptide (MAP-2 staining); assay type: cell-based, rat; settings: two lowest concentrations 10 nM, 100 nM; pre-incubated 1 h before Aβ 1-42 20 µM, 24 h (Figure 2)
From the text: as §1, §2, §3

Structure (SMILES): O=C(/C=C/c1ccc(O)c(O)c1)OC(C(=O)O)C(OC(=O)/C=C/c1ccc(O)c(O)c1)C(OC(=O)/C=C/c1ccc(O)c(O)c1)C(O)C(=O)O (stereo not shown) [acide léontopodique B1, acide 3,4,5-tricaféoylhexarique]
- effet sur la survie des neurones ([1]; 10 nM, 100 nM, 1 µM, 10 µM, 24 h, protective effect follows a bell-shaped curve (Figure 1)): effet significatif et important
- mort neuronale ([1]; 100 nM and 1 µM, 24 h (Figure 1)): aucune mort neuronale n'a été observée
- effet sur la survie des astrocytes (astrocytes; all concentrations (10 nM to 10 µM)): effet protecteur
- mort cellulaire (astrocytes) (astrocytes; three highest concentrations 100 nM, 1 µM, 10 µM): Aucune mort cellulaire n'a été observée
- effet sur la prolifération des astrocytes ([2]; 100 nM up to 50 µM): aucun effet significatif
- concentration cellulaire ([2]; highest concentration 50 µM): légère mais non significative diminution
- effet sur le réseau de neurites [3]: effet significatif et important
